According to patent US20230279025A1, “KRAS G12D INHIBITORS” (Mirati Therapeutics, Inc., priority 2020, published 2023):
Counter-ions that a name gives are not always drawn.

What was measured:
[1] = target: T1, KRas G12D (Homo sapiens (Human), UniProt P01116, G12D); assay: KRas G12D Surface Plasmon Resonance (SPR) Binding Assay; settings: Biacore T200, immobilized biotinylated KRAS protein, 1:1 binding model
Procedure: Briefly, 1L of 1.05X HBS-Mg buffer (262.5 mM Bioultra Hepes, pH 7.5, 157.5 mM NaCl, 105 mM MgCl2, 0.525 mM TCEP, 0.0305% Brij-35) was prepared and filter sterilized using a 0.22 μm bottle top filter. Approximately 50 mL of 1.05X HBS-Mg buffer was removed and saved for future dilutions. A 50 mL aliquot of DMSO (Sigma Aldrich DMSO Lot. #SHBK2079) was added and continued to stir for 10 minutes, creating the final 1.0X HBS-Mg buffer (250 mM Bioultra Hepes pH 7.5, 150 mM NaCl, 100 mM MgCl2, 0.5 mM TCEP, 0.03% Brij-35).
Biacore T200 instrument was primed using 1.0X HBS-Mg buffer before docking a GE Streptavidin (SA) chip and then primed two additional times prior to beginning the immobilization step. All immobilized protein mixtures were created using 3-5 mg/mL Biotinylated Avidin-tagged KRAS protein using the following immobilization settings: SA chip type, 1 flow cells per cycle, 720 second contact time, and 5 ul/min flow rate. Normalization of the detector was also performed during the immobilization step using the GE BiaNormalize solution.
All compounds were diluted to 10 mM in 100% DMSO prior to being diluted 20X in 1.05X buffer. Another 10X dilution was created using 1.0X buffer prior to performing a series of 3X dilutions to create a compound concentration curve using the following assay settings: 20C analysis temperature, General Settings=10 Hz data collection rate and multi-detection; Assay Steps=all set to LMW kinetics; Cycle Types=LMW kinetics (60 s contact time, 120 s dissociation time, 100 ul/min flow rate, extra wash after injection with 50% DMSO, flow path 1,2,3,4); Flow path detection=2-1, 4-3). Data evaluation was performed using the Biacore T200 Evaluation software and data fit to 1:1 binding model. ND=not determined.
Target sequence in this assay (P01116-2 other isoform, or with tags, fused parts or gaps G12D): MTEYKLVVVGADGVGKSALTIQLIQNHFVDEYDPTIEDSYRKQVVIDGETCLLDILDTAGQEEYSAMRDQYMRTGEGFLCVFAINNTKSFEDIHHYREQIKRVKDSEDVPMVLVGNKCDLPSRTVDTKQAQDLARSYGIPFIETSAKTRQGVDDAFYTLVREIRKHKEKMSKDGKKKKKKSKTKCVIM

[2] = target: T1, KRas G12D; assay: KRas G12D Binding Assay (TR-FRET displacement of Cy5 labelled tracer); settings: GDP-loaded KRAS G12D (amino acids 1:169), 60 minute incubation at 22° C.
Procedure: After a 60 minute incubation at 22° C., the reaction was measured using a PerkinElmer EnVision multimode plate reader via TR-FRET dual wavelength detection, and the percent of control (POC) calculated using a ratiometric emission factor. […] The POC values were fit to a 4-parameter logistic curve and the IC50 value was determined as the concentration where the curve crosses 50 POC.
ND stands for “not determined.”
Target sequence in this assay (P01116 other isoform, or with tags, fused parts or gaps G12D): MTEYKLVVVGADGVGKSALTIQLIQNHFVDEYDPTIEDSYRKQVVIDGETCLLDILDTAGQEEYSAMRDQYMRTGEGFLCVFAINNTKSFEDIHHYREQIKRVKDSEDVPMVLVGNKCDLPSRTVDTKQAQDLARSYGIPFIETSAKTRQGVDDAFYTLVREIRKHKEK

| SMILES | Kd [1] | IC50 [2] |
| --- | --- | --- |
| Fc1c(-c2cccc3cccc(Cl)c23)ncc2c(N3C[C@H]4CC[C@@H](C3)N4)nc(OCC34CCCN3CCC4)nc12 [Example 45, 4-((1R,5S)-3,8-diazabicyclo[3.2.1]octan-3-yl)-7-(8-chloronaphthalen-1-yl)-8-fluoro-2-((tetrahydro-1H-pyrrolizin-7a(5H)-yl)methoxy)pyrido[4,3-d]pyrimidine] | 5.1 nM | 5.5 nM |
| Cn1cncc1COc1nc(N2C[C@H]3CC[C@@H](C2)N3)c2cnc(-c3cc(O)cc4ccccc34)c(F)c2n1 [Example 95, 4-(4-((1R,5S)-3,8-diazabicyclo[3.2.1]octan-3-yl)-8-fluoro-2-((1-methyl-1H-imidazol-5-yl)methoxy)pyrido[4,3-d]pyrimidin-7-yl)naphthalen-2-ol] | 1130 nM | 561 nM |
| Oc1cc(-c2ncc3c(N4C[C@H]5CC[C@@H](C4)N5)nc(N4CCCC4)nc3c2F)c2ccccc2c1 [Example 118, 4-(4-((1R,5S)-3,8-diazabicyclo[3.2.1]octan-3-yl)-8-fluoro-2-(pyrrolidin-1-yl)pyrido[4,3-d]pyrimidin-7-yl)naphthalen-2-ol 2,2,2-trifluoroacetate] | 1060 nM | 477 nM |
| CN1CCC[C@H]1COc1nc(N2C[C@H]3CC[C@@H](C2)N3)c2cnc(-c3cc(O)cc4ccccc34)cc2n1 [Example 1, 4-(4-((1R,5S)-3,8-diazabicyclo[3.2.1]octan-3-yl)-2-(((S)-1-methylpyrrolidin-2-yl)methoxy)pyrido[4,3-d]pyrimidin-7-yl)naphthalen-2-ol tris-hydrochloride salt] | 97.7 nM | 125 nM |
| Oc1cc(-c2ncc3c(N4C[C@H]5CC[C@@H](C4)N5)nc(OCC(F)(F)C(F)F)nc3c2F)c2ccccc2c1 [Example 52, 4-(4-((1R,5S)-3,8-diazabicyclo[3.2.1]octan-3-yl)-8-fluoro-2-(2,2,3,3-tetrafluoropropoxy)pyrido[4,3-d]pyrimidin-7-yl)naphthalen-2-ol] | 507 nM | 318 nM |
| Oc1cc(-c2ncc3c(N4C[C@H]5CC[C@@H](C4)N5)nc(N4CC5(CCOC5)C4)nc3c2F)c2ccccc2c1 [Example 76, 4-(4-((1R,5S)-3,8-diazabicyclo[3.2.1]octan-3-yl)-8-fluoro-2-(6-oxa-2-azaspiro[3.4]octan-2-yl)pyrido[4,3-d]pyrimidin-7-yl)naphthalen-2-ol] | 197 nM | 131 nM |
| Cn1cnc(COc2nc(N3C[C@H]4CC[C@@H](C3)N4)c3cnc(-c4cc(O)cc5ccccc45)c(F)c3n2)c1 [Example 9, 4-(4-((1R,5S)-3,8-diazabicyclo[3.2.1]octan-3-yl)-8-fluoro-2-((1-methyl-1H-imidazol-4-yl)methoxy)pyrido[4,3-d]pyrimidin-7-yl)naphthalen-2-ol] | 259 nM | 821 nM |
| Cc1cccc2cccc(-c3ncc4c(N5C[C@H]6CC[C@@H](C5)N6)nc(OC[C@@H]5CCCN5C)nc4c3F)c12 [Example 15, 4-((1R,5S)-3,8-diazabicyclo[3.2.1]octan-3-yl)-8-fluoro-7-(8-methylnaphthalen-1-yl)-2-(((S)-1-methylpyrrolidin-2-yl)methoxy)pyrido[4,3-d]pyrimidine] | 208 nM | 260 nM |
| Oc1cc(-c2ncc3c(N4C[C@H]5CC[C@@H](C4)N5)nc(N4CC(O)C4)nc3c2F)c2ccccc2c1 [Example 37, 1-(4-((1R,5S)-3,8-diazabicyclo[3.2.1]octan-3-yl)-8-fluoro-7-(3-hydroxynaphthalen-1-yl)pyrido[4,3-d]pyrimidin-2-yl)azetidin-3-ol bis(2,2,2-trifluoroacetate)] | 494 nM | 405 nM |
| OCC(CO)COc1nc(N2C[C@H]3CC[C@@H](C2)N3)c2cnc(-c3cccc4cccc(Cl)c34)c(F)c2n1 [Example 35, 2-(((4-((1R,5S)-3,8-diazabicyclo[3.2.1]octan-3-yl)-7-(8-chloronaphthalen-1-yl)-8-fluoropyrido[4,3-d]pyrimidin-2-yl)oxy)methyl)propane-1,3-diol] | 1380 nM | 475 nM |
| O=C(O)CCOc1nc(N2C[C@H]3CC[C@@H](C2)N3)c2cnc(-c3cccc4cccc(Cl)c34)c(F)c2n1 [Example 61, 3-((4-((1R,5S)-3,8-diazabicyclo[3.2.1]octan-3-yl)-7-(8-chloronaphthalen-1-yl)-8-fluoropyrido[4,3-d]pyrimidin-2-yl)oxy)propanoic acid compound with 2,2,2-trifluoroacetaldehyde] | 116 nM | 4080 nM |
| CN(C)CCOc1nc(N2C[C@H]3CC[C@@H](C2)N3)c2cnc(-c3cc(O)cc4ccccc34)c(F)c2n1 [Example 18, 4-(4-((1R,5S)-3,8-diazabicyclo[3.2.1]octan-3-yl)-2-(2-(dimethylamino)ethoxy)-8-fluoropyrido[4,3-d]pyrimidin-7-yl)naphthalen-2-ol] | 3.1 nM | 76.8 nM |
| CCCOc1nc(N2C[C@H]3CC[C@@H](C2)N3)c2cnc(-c3cc(O)cc4ccccc34)c(F)c2n1 [Example 47, 4-(4-((1R,5S)-3,8-diazabicyclo[3.2.1]octan-3-yl)-8-fluoro-2-propoxypyrido[4,3-d]pyrimidin-7-yl)naphthalen-2-ol] | 510 nM | 265 nM |
| Oc1cc(-c2ncc3c(N4C[C@H]5CC[C@@H](C4)N5)nc(OCC(F)(F)F)nc3c2F)c2ccccc2c1 [Example 48, 4-(4-((1R,5S)-3,8-diazabicyclo[3.2.1]octan-3-yl)-8-fluoro-2-(2,2,2-trifluoroethoxy)pyrido[4,3-d]pyrimidin-7-yl)naphthalen-2-ol] | 931 nM | 434 nM |
| CN1C[C@H](F)C[C@H]1COc1nc(N2C[C@H]3CC[C@@H](C2)N3)c2cnc(-c3cccc4cccc(Cl)c34)c(F)c2n1 [Example 115, 4-((1R,5S)-3,8-diazabicyclo[3.2.1]octan-3-yl)-7-(8-chloronaphthalen-1-yl)-8-fluoro-2-(((2S,4R)-4-fluoro-1-methylpyrrolidin-2-yl)methoxy)pyrido[4,3-d]pyrimidine] | 333000 nM | 174 nM |
| CN1CCC[C@H]1COc1nc(N2C[C@H]3CC[C@@H](C2)N3)c2cnc(-c3cccc4ccc(F)cc34)c(F)c2n1 [Example 19, 4-((1R,5S)-3,8-diazabicyclo[3.2.1]octan-3-yl)-8-fluoro-7-(7-fluoronaphthalen-1-yl)-2-(((S)-1-methylpyrrolidin-2-yl)methoxy)pyrido[4,3-d]pyrimidine] | 665 nM | 122 nM |
| OCCOc1nc(N2C[C@H]3CC[C@@H](C2)N3)c2cnc(-c3cc(O)cc4ccccc34)c(F)c2n1 [Example 69, 4-(4-((1R,5S)-3,8-diazabicyclo[3.2.1]octan-3-yl)-8-fluoro-2-(2-hydroxyethoxy)pyrido[4,3-d]pyrimidin-7-yl)naphthalen-2-ol] | 522 nM | 530 nM |
| CC(C)n1ccnc1CCOc1nc(N2C[C@H]3CC[C@@H](C2)N3)c2cnc(-c3cc(O)cc4ccccc34)c(F)c2n1 [Example 91, 4-(4-((1R,5S)-3,8-diazabicyclo[3.2.1]octan-3-yl)-8-fluoro-2-(2-(1-isopropyl-1H-imidazol-2-yl)ethoxy)pyrido[4,3-d]pyrimidin-7-yl)naphthalen-2-ol] | 25.9 nM | 32.7 nM |
| CCOC(=O)CCCOc1nc(N2C[C@H]3CC[C@@H](C2)N3)c2cnc(-c3cccc4cccc(Cl)c34)c(F)c2n1 [Example 319, Ethyl 4-((4-((1R,5S)-3,8-diazabicyclo[3.2.1]octan-3-yl)-7-(8-chloronaphthalen-1-yl)-8-fluoropyrido[4,3-d]pyrimidin-2-yl)oxy)butanoate] | 256000 nM | > 10000 nM |
| Fc1c(-c2cccc3cccc(Cl)c23)ncc2c(N3C[C@H]4CC[C@@H](C3)N4)nc(OCC3COC3)nc12 [Example 53, 4-((1R,5S)-3,8-diazabicyclo[3.2.1]octan-3-yl)-7-(8-chloronaphthalen-1-yl)-8-fluoro-2-(oxetan-3-ylmethoxy)pyrido[4,3-d]pyrimidine] | 4370 nM | 1880 nM |
| C#Cc1cccc2cccc(-c3ncc4c(N5C[C@H]6CC[C@@H](C5)N6)nc(OCC56CCCN5CCC6)nc4c3F)c12 [Example 179, 4-((1R,5S)-3,8-diazabicyclo[3.2.1]octan-3-yl)-7-(8-ethynylnaphthalen-1-yl)-8-fluoro-2-((hexahydro-1H-pyrrolizin-7a-yl)methoxy)pyrido[4,3-d]pyrimidine] | 0.1 nM | 1.1 nM |
